# Laboratory results as given in article PMC4741190, “Crystal structure of the flavoenzyme PA4991 from Pseudomonas aeruginosa” (Acta Crystallographica. Section F, Structural Biology …, 2016).
# Biological target: T1, PA4991 (Pseudomonas aeruginosa, UniProt Q9HUH4)
# T1 construct: N-terminal His6 tag cut with TEV protease; expressed in E. coli BL21(DE3)
# T1 sequence (Q9HUH4 1-391): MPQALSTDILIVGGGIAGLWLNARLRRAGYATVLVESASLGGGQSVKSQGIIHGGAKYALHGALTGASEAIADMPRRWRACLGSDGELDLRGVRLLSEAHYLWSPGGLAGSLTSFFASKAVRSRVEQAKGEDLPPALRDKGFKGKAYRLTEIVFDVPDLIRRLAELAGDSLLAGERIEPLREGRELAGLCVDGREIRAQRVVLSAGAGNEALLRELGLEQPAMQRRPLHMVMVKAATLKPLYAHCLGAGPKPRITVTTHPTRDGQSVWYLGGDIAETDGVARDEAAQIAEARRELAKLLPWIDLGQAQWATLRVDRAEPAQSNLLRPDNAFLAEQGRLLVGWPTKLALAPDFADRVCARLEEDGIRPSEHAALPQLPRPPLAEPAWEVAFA
# Test: X-ray crystal structure, […] A; UV-visible spectrum
# Format: binding
# Conditions: noncovalent; co-purified cofactor, extended conformation; crystals pH 8.5, soaked in 1 mM phenylmercuric chloride
smiles,measurement,value
Cc1cc2nc3c(=O)[nH]c(=O)nc-3n(C[C@H](O)[C@H](O)[C@H](O)COP(=O)(O)OP(=O)(O)OC[C@H]3O[C@@H](n4cnc5c(N)ncnc54)[C@H](O)[C@@H]3O)c2cc1C [FAD],"X-ray crystal structure, 2.40 A; UV-visible spectrum",FAD is bound noncovalently to PA4991 in an extended conformation
